This is an account of results in US20110112056A1, “Use of Carbon-2-Modified-Vitamin D Analogs to Induce the Formation of New Bone” (WISCONSIN ALUMNI RESEARCH FOUNDATION, priority 2002, published 2011).

The test system of test [1] is human osteoblast cultures. The test can be described thus: Bone nodule formation in vitro in human osteoblast cultures (Von Kossa stain). The class given is cell-based. To be noted: for formation of mineralized bone by osteoblast cultures (Von Kossa stain, FIG. 2): different concentrations (10^−8 to 10^−12 molar). The source says: Human bone samples discarded after surgical procedures from patients undergoing hip/knee replacement surgeries are obtained under an approved IRB protocol (Protocol #2001-055) and processed as described below. These bone pieces are otherwise routinely discarded as waste material during surgery.
The bone pieces are thoroughly washed and cleaned under sterile conditions using phosphate-buffered saline (PBS). These pieces are then cut to obtain smaller pieces (1-2 mm^3) and subjected to enzymatic digestion process to isolate osteoblasts as described below.
Osteoblastic cells are obtained from the bone pieces by collagenase digestion. Briefly, the bone samples are washed twice in PBS and dissected in about 1 mm^3 size fragments which are then sequentially digested in trypsin (1 mg/mL) for ten minutes, followed by dispase (2 mg/mL) for twenty minutes, and bacterial collagenase [Collagenase A] (3 mg/mL) twice for thirty minutes in PBS at 37° C. in a water bath. Cells released by collagenase digestion are then washed, counted and grown to sub-confluence in 25 cm^2 cell culture flasks in 1:1 Ham's F12/Dulbecco's modification of Eagle's medium (DMEM) supplemented with 10% fetal bovine serum. Cells are cultured at 37° C. in a humidified atmosphere of 5% CO2/95% air. Medium changes are made every 2-3 days and cells are cultured until they are 80% confluent. Cells are then trypsinized, washed and frozen from early passages for evaluation using techniques as described below.
In order to evaluate the ability of osteoblasts to form bone nodules in vitro, cells are cultured in 6 well plates at 1-3×10^5 cells/well. Cells are cultured in the presence of either 1,25-(OH)2D3 or vitamin D analogs at various doses for 7 days. Complete medium changes are carried out twice during the 7-day period and the medium is supplemented with fresh compounds (either 1,25-(OH)2D3 or 2-methylene-19-nor-(20S)-1α,25-dihydroxyvitamin D3—2MD) during each medium change. At days 10 and 13, complete medium changes are carried out and the compounds are replaced by treatment with ascorbic acid (50 μg/ml) and β-glycerol phosphate (10 mM). A third dose of ascorbic acid and β-glycerol phosphate is added to the cultures on day 15 if needed. Following the culture period, cells are stained using the Von Kossa technique. Briefly, cells are stained with 5% silver nitrate for 30 minutes in the dark, rinsed with distilled water, reduced with sodium carbonate/formaldehyde solution for 2 minutes and washed under tap water for 10 minutes. The cells are then stained with methyl green pyronin for 20 minutes, washed with water followed by two washes of absolute alcohol. […] Bone nodule formation in vitro can be assessed quantitatively by various published procedures.

The subject of the next test is post-menopausal women. To be noted: cited from earlier work.
The test system of a further test is ovariectomized rats. As to conditions: cited from earlier work; for bone mass: ovariectomized animal; for bone strength: ovariectomized rats.

SMILES strings stand for the structures. “Also recorded” adds a separate entry of the source. Where two headings read alike, the source gives them in different places.

For `C=C1/C(=C\C=C2/CCC[C@]3(C)[C@@H]([C@H](C)CCCC(C)(C)O)CC[C@@H]23)C[C@@H](O)C[C@@H]1O` [1,25-(OH)2D3, 1α,25-dihydroxyvitamin D3], in test [1] (10^−8 molar, after 14 days of incubation), the “change in osteoblast cultures (photographs, FIG. 1)” value was “very little change”. The “formation of mineralized bone by osteoblast cultures (Von Kossa stain, FIG. 2)” value in test [1] was “does not produce this effect; also recorded: minimum effect”. Moreover, in the test on post-menopausal women, the bone mass entry is reported as “will not appreciably increase the bone mass” and the fracture rate result is on record as “will decrease the fracture rate”.

On to `C=C1[C@H](O)CC(=C/C=C2\CCC[C@]3(C)[C@@H]([C@@H](C)CCCC(C)(C)O)CC[C@@H]23)C[C@H]1O` [2MD, 2-methylene-19-nor-(20S)-1α,25-dihydroxyvitamin D3], for which the “degree of new bone formation” value in test [1] (10^−12 molar) is reported as “saturating degree of new bone formation”. In test [1], the “formation of mineralized bone by osteoblast cultures (Von Kossa stain, FIG. 2)” value is “unique and strong action”. In addition, the bone mass entry with ovariectomized rats is recorded as “markedly stimulate bone mass accumulation”; in the test with ovariectomized rats (listed as 2-methylene-19-nor-20S-1,25-(OH)2D3) it was “increase bone mass”. Besides, the bone strength entry with ovariectomized rats is “increase bone strength”.

For the compound `CC1C(O)CC(=CC=C2CCC[C@]3(C)[C@@H]([C@@H](C)CCCC(C)(C)O)CC[C@@H]23)CC1O` (stereo partly drawn) [2α-methyl-19-nor-20S-1,25-(OH)2D3, 2α-methyl-19-nor-20(S)-1α,25-dihydroxyvitamin D3], in the test on ovariectomized rats, the bone mass result is reported as “increase bone mass” and the bone strength entry is given as “increase bone strength”.
